Patent US6573246B1, “Modified ether glyceroglycolipids” (The Liposome Company, Inc., priority 1995, dated 2003)
Read-outs that look alike come from different tables or passages of the source.

What was measured:
[1] = test system: MCF-7 (breast adenocarcinoma) cells; assay: growth inhibition of MCF-7 cells in culture; assay type: cell-based, human
Experimental: (§1) Human epithelial cancer cell lines were grown from frozen stocks originally obtained from the ATCC, in media commonly used for growing these cells in culture. For example, A549 cells (non-small cell lung adenocarcinoma) were cultured in Ham's F-12 medium, T84 cells (colon carcinoma) were cultured in a 1:1 mixture of F-12 and DMEM while MCF-7 (breast adenocarcinoma) and A427 (large cell lung carcinoma) cells were cultured in DMEM. The media were supplemented with 10% fetal bovine serum, penicillin (50 U/ml), streptomycin (50 micogram/ml) and fungizone (0.5 microgram/ml). OVCAR-3 cells (ovarian adenocarcinoma) were cultured in RPMI 1640 medium supplemented with 20% FBS and 10 microgram/ml insulin.
(§2) Cells were subcultured into 24-well plates and the cell number was monitored daily. When the cells were in log phase, the media was replaced with one containing the required drug concentration, and the cells were incubated for 72 h. The increase in cell numbers relative to control wells (without any drug) was determined after the incubation. Stock solutions of the drugs ([…]) were prepared in ethanol and stored at −20 deg. C. Etherlipid solutions (30 micromolar) in the appropriate media were prepared fresh on the day of the experiment and serially diluted to give the required concentrations. The final concentration of ethanol in all wells was 0.1% (v/v).
(§3) Gl50 values are given as the mean ± standard deviation; the Gl50 value from each experiment “n” was generated from three individual wells on two separate plates (six total wells); n=1 for compounds 3-6; n=2 for most cell lines treated with compound 2 ^an=3; ^bn=2; ^cn=6; ^dn=8.

[2] = test system: OVCAR-3 cells (ovarian adenocarcinoma); assay: growth inhibition of OVCAR-3 cells in culture; assay type: cell-based, human; conditions: for growth: increase in cell numbers relative to control wells (control = 100): OVCAR-3, 72 h; for IC50: OVCAR-3 ovarian cancer cell line, read-out: Gl50 (the source's name)
Experimental: as §1, §2

[3] = test system: A549 cells (non-small cell lung adenocarcinoma); assay: growth inhibition of A549 cells in culture; assay type: cell-based, human
Experimental: as §1, §2, §3

[4] = test system: T84 cells (colon carcinoma); assay: growth inhibition of T84 cells in culture; assay type: cell-based, human; conditions: 72 h
Experimental: as §1, §2

[5] = test system: A427 (large cell lung carcinoma) cells; assay: growth inhibition of A427 cells in culture; assay type: cell-based, human; conditions: 72 h
Experimental: as §1, §2

Lewis Lung cells = assay: growth inhibition of Lewis Lung cells in culture; assay type: cell-based, murine; conditions: mean ± standard deviation, read-out: Gl50 (concentration of lipid required to inhibit the growth of fifty percent of the cells in culture)
Experimental: (§4) The Gl50 values for edelfosine (1), 2′-deoxy-β-D-arabinopyranosyl (2), 2′-deoxy-α-D-arabinopyranosyl (3), 2-O-methyl-β-D-glucopyranosyl (4), 2′-O-methyl-β-D-mannopyranosyl (5) and α-D-mannopyransoyl (6) on A-549, MCF-7, Lewis Lung, MCF-7/Adr (adriamycin-resistant), P388, P-388/Adr, L1210 and L1210/vmdr cells were determined and are set forth below (see Table 4) as the concentration (micromolar) of lipid required to inhibit the growth of fifty percent of the cells in culture.
as §3

P388 cells = assay: growth inhibition of P388 cells in culture; assay type: cell-based, murine; conditions: mean ± standard deviation, read-out: Gl50 (concentration of lipid required to inhibit the growth of fifty percent of the cells in culture)
Experimental: as §4, §3

P-388/Adr cells = assay: growth inhibition of P388/adr cells in culture; assay type: cell-based, murine; conditions: mean ± standard deviation, read-out: Gl50 (concentration of lipid required to inhibit the growth of fifty percent of the cells in culture)
Experimental: as §4, §3

[6] = test system: MCF-7/Adr (adriamycin-resistant) cells; assay: growth inhibition of MCF7/adr cells in culture; assay type: cell-based, human; conditions: mean ± standard deviation, read-out: Gl50 (concentration of lipid required to inhibit the growth of fifty percent of the cells in culture)
Experimental: as §4, §3

HT29 cells = assay: growth inhibition of HT29 cells in culture; assay type: cell-based; conditions: mean ± standard deviation, read-out: Gl50 (concentration of lipid required to inhibit the growth of fifty percent of the cells in culture)
L1210/vmdr cells = assay: growth inhibition of L1210/vmdr cells in culture; assay type: cell-based; conditions: mean ± standard deviation, read-out: Gl50 (concentration of lipid required to inhibit the growth of fifty percent of the cells in culture)
Experimental: as §4, §3

L1210 cells = assay: growth inhibition of L1210 cells in culture; assay type: cell-based; conditions: mean ± standard deviation, read-out: Gl50 (concentration of lipid required to inhibit the growth of fifty percent of the cells in culture)
Experimental: as §4, §3

[7] = 10% FBS-supplemented medium, read-out: Gl50 (concentration that inhibited cell growth by 50% in comparison to control cultures)
[8] = MCF7, mean ± standard deviation, read-out: Gl50 (concentration of lipid required to inhibit the growth of fifty percent of the cells in culture)
[9] = mean ± standard deviation, read-out: Gl50 (concentration of lipid required to inhibit the growth of fifty percent of the cells in culture)

Compound: CCCCCCCCCCCCCCCCOC[C@H](CO[C@@H]1O[C@H](CO)[C@@H](O)[C@H](O)[C@H]1NC(C)=O)OC [B, 1-O-hexadecyl-2-O-methyl-3-O-(2′-acetamido-2′-deoxy-β-D-glucopyranosyl)-sn-glycerol]
- IC50 ([1]; MCF-7, 72 h, 10% FBS-supplemented medium, read-out: Gl50 (concentration that inhibited cell growth by 50% in comparison to control cultures)): 17 µM
- proliferation: increase in cell numbers relative to control wells (control = 100) ([1]; MCF-7, lipid concentration 5 μM, 72 h): 81 ± 8
- proliferation: increase in cell numbers relative to control wells (control = 100) ([1]; MCF-7, lipid concentration 10 μM, 72 h): 71 ± 6
- proliferation: increase in cell numbers relative to control wells (control = 100) ([1]; MCF-7, lipid concentration 15 μM, 72 h): 58 ± 5
- proliferation: increase in cell numbers relative to control wells (control = 100) ([1]; MCF-7, lipid concentration 20 μM, 72 h): 38 ± 2
- proliferation: increase in cell numbers relative to control wells (control = 100) ([1]; MCF-7, lipid concentration 30 μM, 72 h): 6 ± 3
- growth: increase in cell numbers relative to control wells (control = 100) ([2]; lipid concentration 5 μM): 68.8 ± 5.8
- growth: increase in cell numbers relative to control wells (control = 100) ([2]; lipid concentration 10 μM): 52.9 ± 3.9
- growth: increase in cell numbers relative to control wells (control = 100) ([2]; lipid concentration 15 μM): 34.6 ± 7.3
- growth: increase in cell numbers relative to control wells (control = 100) ([2]; lipid concentration 20 μM): 26.0 ± 10.9
- growth: increase in cell numbers relative to control wells (control = 100) ([2]; lipid concentration 30 μM): 4.7 ± 4.8
- IC50 [2]: 4 µM
- IC50 ([3]; 72 h, 10% FBS-supplemented medium, read-out: Gl50 (concentration that inhibited cell growth by 50% in comparison to control cultures)): 9 µM
- proliferation: increase in cell numbers relative to control wells (control = 100) ([3]; lipid concentration 5 μM, 72 h): 91 ± 9
- proliferation: increase in cell numbers relative to control wells (control = 100) ([3]; lipid concentration 10 μM, 72 h): 45 ± 3
- proliferation: increase in cell numbers relative to control wells (control = 100) ([3]; lipid concentration 15 μM, 72 h): 15 ± 2
- proliferation: increase in cell numbers relative to control wells (control = 100) ([3]; lipid concentration 20 μM, 72 h): 0
- proliferation: increase in cell numbers relative to control wells (control = 100) ([3]; lipid concentration 30 μM, 72 h): 0
- IC50 [4, 7]: > 30 µM
- proliferation: increase in cell numbers relative to control wells (control = 100) ([4]; lipid concentration 5 μM): 96 ± 10
- proliferation: increase in cell numbers relative to control wells (control = 100) ([4]; lipid concentration 10 μM): 79 ± 12
- proliferation: increase in cell numbers relative to control wells (control = 100) ([4]; lipid concentration 15 μM): 77 ± 13
- proliferation: increase in cell numbers relative to control wells (control = 100) ([4]; lipid concentration 20 μM): 79 ± 16
- proliferation: increase in cell numbers relative to control wells (control = 100) ([4]; lipid concentration 30 μM): 61 ± 13
- IC50 [5, 7]: 24.5 µM
- proliferation: increase in cell numbers relative to control wells (control = 100) ([5]; lipid concentration 5 μM): 93 ± 12
- proliferation: increase in cell numbers relative to control wells (control = 100) ([5]; lipid concentration 10 μM): 92 ± 6
- proliferation: increase in cell numbers relative to control wells (control = 100) ([5]; lipid concentration 15 μM): 86 ± 10
- proliferation: increase in cell numbers relative to control wells (control = 100) ([5]; lipid concentration 20 μM): 71 ± 8
- proliferation: increase in cell numbers relative to control wells (control = 100) ([5]; lipid concentration 30 μM): 24 ± 4

Compound: CCCCCCCCCCCCCCCCOP(=O)([O-])OCC[N+](C)(C)C [D, hexadecylphosphocholine]
- IC50 ([2]; Homo sapiens): > 30 µM
- growth: increase in cell numbers relative to control wells (control = 100) ([2]; lipid concentration 5 μM): 93.8 ± 16.5
- growth: increase in cell numbers relative to control wells (control = 100) ([2]; lipid concentration 10 μM): 90.3 ± 11.3
- growth: increase in cell numbers relative to control wells (control = 100) ([2]; lipid concentration 15 μM): 67.4 ± 14.5
- growth: increase in cell numbers relative to control wells (control = 100) ([2]; lipid concentration 20 μM): 62.3 ± 10.7
- growth: increase in cell numbers relative to control wells (control = 100) ([2]; lipid concentration 30 μM): 67.2 ± 12.5

Compound: CCCCCCCCCCCCCCCCOC[C@H](CO[C@@H]1O[C@H](CO)[C@@H](O)[C@H](O)[C@H]1OC)OC [compound 4, 1-O-Hexadecyl-2-O-methyl-3-O-(2′-methyl-β-D-glucopyransoyl)-sn-glycerol]
- IC50 [1, 8]: 23.1 ± 0.64 µM
- IC50 (Lewis Lung cells): 26 ± 0.71 µM
- IC50 [3, 9]: 18.3 ± 0.14 µM
- IC50 (P388 cells): 18.1 ± 1.13 µM
- IC50 (P-388/Adr cells): 29.3 ± 5.66 µM
- IC50 [6]: 21.8 ± 0.63 µM

Compound: CCCCCCCCCCCCCCCCOC[C@H](CO[C@@H]1C[C@H](O)[C@H](O)CO1)OC [compound 3, 1-O-Hexadecyl-2-O-methyl-3-O-(2′-deoxy-α-D-arabinopyransoyl)-sn-glycerol]
- IC50 (HT29 cells): 29.6 ± 0.28 µM
- IC50 [1, 8]: 24.4 ± 0.64 µM
- IC50 (L1210/vmdr cells): 26.9 ± 1.06 µM
- IC50 [3, 9]: 19.65 ± 0.07 µM
- IC50 (L1210 cells): 18.8 ± 0.49 µM
- IC50 [6]: 24.4 ± 0.42 µM
